Assay results taken from patent publication US10947273B2, “Peptides of use in the preventive and curative treatment of alopecia” (Institut Europeen de Biologie Cellulaire, priority 2015, dated 2021).
The star is where a group is joined. Palmitoyl = CCCCCCCCCCCCCCCC(=O)*

How the values were obtained:
Format in all cases: cell-based, human
[1] = tested on: HGF; test: HGF secretion by NHDF (ELISA/BioPlex); conditions: 48h
Procedure: (§1) NHDF, HFDPC, HHFK and NHEM cells were treated with the peptides studied for 48h. At the end of the treatment, cell supernatants were collected and stored at −80° C. until analysis. The factors of interest secreted into the supernatant were assayed by ELISA® (R&D) or BioPlex® (BioRad®).
(§2) The results are expressed as percent increase in the concentration of the factor present in the supernatant relative to the untreated control. The intensity of the effect varies as a function of the concentration of the peptide studied and of the cell type treated.

[2] = tested on: KGF; test: qPCR (TLDA) KGF gene expression in HFDPC; set-up: dose or concentration left out as unconfirmed; conditions: peptide, 24 hours, relative to untreated controls
Procedure: (§3) RNA was extracted and purified from cell pellets using the RNA XS Kit (Macherey-Nagel). RNA quantification was carried out with a NanoDrop device and sample quality was verified on a Bioanalyzer with RNA 6000 Nano chips (Agilent). cDNA was synthesized from 300 ng of RNA using the High-Capacity cDNA Reverse Transcription Kit (LifeTech). Quality-control qPCR assays of the cDNA were carried out in microplates on the reference gene, GAPDH, and the SIRT1 gene.
(§4) Final qPCR experiments were carried out in a 1 μl volume on microfluidic cards (TaqMan Low Density Arrays, LifeTech) and the ABI 7900HT qPCR device. Amplification reactions were performed in duplicate using 1 to 2 ng of cDNA per qPCR reaction and TaqMan Universal Master Mix II (LifeTech).
(§5) Ct values were obtained using the RQ Manager software. For analyses of qPCR results, Ct values were limited to 35 cycles and the duplicate assays are averaged. The GeneXPro software was used for the studies of stability and of selection of the best reference genes. Expression variations are calculated by the relative quantification method and are expressed as percent increase in expression of the gene of interest relative to the untreated controls.

[3] = tested on: HGF; test: HGF secretion by HFDPC (ELISA/BioPlex); conditions: 48h
Procedure: as §1, §2

[4] = tested on: PDGF; test: qPCR (TLDA) PDGF gene expression in HFDPC; set-up: dose or concentration left out as unconfirmed; conditions: peptide, 24 hours, relative to untreated controls
Procedure: as §3, §4, §5

[5] = tested on: VEGF; test: qPCR (TLDA) VEGF gene expression in HFDPC; conditions: peptide 10^−5 M (table title), 24 hours, relative to untreated controls
Procedure: as §3, §4, §5

[6] = tested on: SCF; test: SCF secretion by HHFK (ELISA/BioPlex); conditions: 10^−7 M, 48h
Procedure: as §1, §2

[7] = tested on: VEGF; test: VEGF secretion by NHDF (ELISA/BioPlex); conditions: 10^−5 M, 48h
Procedure: as §1, §2

[8] = tested on: genes whose expression is reduced in subjects characterized by alopecia; test: qPCR (TLDA) overall statement, genes involved in alopecia, HFDPC; conditions: summary of Table 1
Procedure: (§6) To study the effect of 9 peptides on these genes, HFDPC were treated for 24 hours with the molecules tested at 10^−7M and 10^−9M concentrations.
as §3, §4, §5

[9] = tested on: SCF; test: SCF secretion by NHDF (ELISA/BioPlex); conditions: 10^−7 M, 48h
Procedure: as §1, §2

[10] = tested on: PDGF; test: PDGF secretion by HFDPC (ELISA/BioPlex); conditions: 48h
Procedure: as §1, §2

[11] = tested on: VEGF; test: VEGF secretion by HFDPC (ELISA/BioPlex); conditions: 10^−5 M, 48h
Procedure: as §1, §2

[12] = tested on: follicular markers; test: Follicular markers in isolated hair ex vivo (immunolabeling); conditions: end of treatment D11 or D12, value = marker increased
Procedure: (§7) This study was carried out on microdissected hairs from scalp surgery specimens from women aged 52 to 71 years. Isolated hairs were kept alive for 11 to 12 days in Williams medium, under conventional cell culture conditions (37° C., 5% CO2). […]
(§8) To evaluate the effect of (1), (6) or (9) on hair growth, the hairs were photographed and their lengths measured using image analysis software. Thus, the growth of the hairs between D0 and D11/D12 could be calculated and compared with that of the untreated control. At the end of the treatments (D11 or D12), the hairs were collected and frozen or fixed for immunolabeling and histological staining.

[13] = tested on: microdissected hairs from scalp surgery specimens; test: Growth of isolated hair ex vivo; conditions: ex vivo isolated hair
Procedure: as §7, §8

[14] = tested on: HGF; test: HGF secretion by HHFK (ELISA/BioPlex); conditions: 10^−7 M, 48h
Procedure: as §1, §2

[15] = tested on: NGF; test: NGF secretion by NHDF (ELISA/BioPlex); conditions: 10^−5 M, 48h
Procedure: as §1, §2

[16] = tested on: HGF; test: HGF secretion by NHEM (ELISA/BioPlex); conditions: 10^−7 M, 48h
Procedure: as §1, §2

[17] = tested on: VEGF; test: VEGF secretion by NHEM (ELISA/BioPlex); conditions: 10^−7 M, 48h
Procedure: as §1, §2

[18] = tested on: IGF1; test: qPCR (TLDA) IGF1 gene expression in HFDPC; conditions: relative to untreated controls
Procedure: as §6, §3, §4, §5

With H-Arg-Pro-Ala-Lys-OH (H-RPAK-OH) [(8)] the “HGF secretion, percent increase relative to untreated control” value ([1]; 10^−5 M) was “HGF 8%”, the “% stimulation KGF gene expression” value [2] was 14% and the “HGF secretion, percent increase relative to untreated control” value ([3]; 10^−5 M) was “HGF 26%”. For the same substance, the “HGF secretion, percent increase relative to untreated control” value ([3]; 10^−7 M) was “HGF 129%”.

With “Palm-Arg-Pro-Ala-Lys-OH (Palmitoyl-RPAK-OH; SMILES CCCCCCCCCCCCCCCC(=O)N[C@@H](CCCNC(=N)N)C(=O)N1CCC[C@H]1C(=O)N[C@@H](C)C(=O)N[C@@H](CCCCN)C(=O)O) [Peptide (9)]” the “% stimulation PDGF gene expression” value [4] was 304%, the “% stimulation KGF gene expression” value [2] was 156% and the “% stimulation VEGF gene expression” value [5] was 93%. The “SCF secretion, percent increase relative to untreated control” value [6] was “SCF 11%”, the “VEGF secretion, percent increase relative to untreated control” value [7] was “VEGF 24%” and the “stimulation of genes whose expression is reduced in alopecia (in words)” value [8] was “stimulate several genes”. For the same substance, the “SCF secretion, percent increase relative to untreated control” value [9] was “SCF 8%”, the “PDGF secretion, percent increase relative to untreated control” value ([10]; 10^−5 M) was “PDGF 62%” and the “PDGF secretion, percent increase relative to untreated control” value ([10]; 10^−7 M) was “PDGF 117%”. For the same substance, the “VEGF secretion, percent increase relative to untreated control” value [11] was “VEGF 10%”, the “Follicular markers increased Vs Control” value ([12]; 10^−7 M) was “CK15” and the “Follicular markers increased Vs Control” value ([12]; 10^−9 M) was “CK15”. The “Growth at D 11/D 12 Vs Control” value ([13]; 10^−7 M) was “No effect”, the “Growth at D 11/D 12 Vs Control” value ([13]; 10^−9 M) was “+5%” and the “HGF secretion, percent increase relative to untreated control” value [14] was “HGF 94%”.

With “Palm-Ala-Arg-Ala-Ala-Lys-NH2 (Palmitoyl-ARAAK-NH2; SMILES CCCCCCCCCCCCCCCC(=O)N[C@@H](C)C(=O)N[C@@H](CCCNC(=N)N)C(=O)N[C@@H](C)C(=O)N[C@@H](C)C(=O)N[C@@H](CCCCN)C(N)=O) [(5)]” the “HGF secretion, percent increase relative to untreated control” value ([1]; 10^−7 M) was “HGF 21%”, the “NGF secretion, percent increase relative to untreated control” value [15] was “NGF 15%” and the “% stimulation VEGF gene expression” value [5] was 10%. The “HGF secretion, percent increase relative to untreated control” value [16] was “HGF 8%”, the “VEGF secretion, percent increase relative to untreated control” value [7] was “VEGF 12%” and the “stimulation of genes whose expression is reduced in alopecia (in words)” value [8] was “stimulate several genes”. For the same substance, the “PDGF secretion, percent increase relative to untreated control” value ([10]; 10^−5 M) was “PDGF 39%”, the “PDGF secretion, percent increase relative to untreated control” value ([10]; 10^−7 M) was “PDGF 55%” and the “VEGF secretion, percent increase relative to untreated control” value [17] was “VEGF 5%”. The “% stimulation IGF1 gene expression” value ([18]; peptide 10^−7, 24 hours) was 29% (10^−7), the “% stimulation IGF1 gene expression” value ([18]; peptide 10^−9, 24 hours) was 16% (10^−9) and the “HGF secretion, percent increase relative to untreated control” value [14] was “HGF 104%”.
